Calls of active or inactive are those of the source.
Assays:
[1] = molecular target: RNA-editing ligase 1, mitochondrial (Trypanosoma brucei brucei, UniProt P86926); assay: TbREL1 ligase inhibitors, dose response, biochemical, fluorescence, Trypanosoma brucei (AID 1117295); format: functional
[2] = molecular target: T1, Oxysterols receptor LXR-beta (Homo sapiens, UniProt P55055); format: functional, cell-based;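 note: Cell-based luminescence dose-response assay of agonist activity at LXR, run as a confirmatory counterscreen to a daf-12 agonist screen; HEK293 cells with Gal4-LXR fusion and GAL4-driven luciferase reporter; agonist potency from rising luciferase signal of a Gal4-LXR reporter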
T1 sequence (P55055 whole entry): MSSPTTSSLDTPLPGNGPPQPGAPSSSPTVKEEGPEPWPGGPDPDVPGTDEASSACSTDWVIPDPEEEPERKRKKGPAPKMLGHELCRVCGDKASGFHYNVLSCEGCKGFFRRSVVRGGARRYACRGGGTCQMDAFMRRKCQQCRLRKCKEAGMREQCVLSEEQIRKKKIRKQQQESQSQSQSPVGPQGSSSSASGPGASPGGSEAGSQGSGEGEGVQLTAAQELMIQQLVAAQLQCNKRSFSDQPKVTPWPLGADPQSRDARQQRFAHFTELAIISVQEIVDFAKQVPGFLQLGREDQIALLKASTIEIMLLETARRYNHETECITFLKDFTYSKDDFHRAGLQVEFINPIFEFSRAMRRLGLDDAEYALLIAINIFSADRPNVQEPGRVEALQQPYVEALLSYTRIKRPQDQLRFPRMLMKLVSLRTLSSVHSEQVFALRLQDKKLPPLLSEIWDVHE

cells [3] = assay: cells
Paired box protein Pax-8 = Paired box protein Pax-8 (Homo sapiens, UniProt Q06710); assay: inhibitors of PAX8-driven TPO luciferase reporter, dose response, RMG-I cells, cherry-pick (AID 687027); format: functional, cell-based;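 note: luciferase reporter driven by Pax8 target thyroperoxidase promoter measured by SteadyGlo luminescence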
Sequence of Paired box protein Pax-8 (Q06710 whole entry): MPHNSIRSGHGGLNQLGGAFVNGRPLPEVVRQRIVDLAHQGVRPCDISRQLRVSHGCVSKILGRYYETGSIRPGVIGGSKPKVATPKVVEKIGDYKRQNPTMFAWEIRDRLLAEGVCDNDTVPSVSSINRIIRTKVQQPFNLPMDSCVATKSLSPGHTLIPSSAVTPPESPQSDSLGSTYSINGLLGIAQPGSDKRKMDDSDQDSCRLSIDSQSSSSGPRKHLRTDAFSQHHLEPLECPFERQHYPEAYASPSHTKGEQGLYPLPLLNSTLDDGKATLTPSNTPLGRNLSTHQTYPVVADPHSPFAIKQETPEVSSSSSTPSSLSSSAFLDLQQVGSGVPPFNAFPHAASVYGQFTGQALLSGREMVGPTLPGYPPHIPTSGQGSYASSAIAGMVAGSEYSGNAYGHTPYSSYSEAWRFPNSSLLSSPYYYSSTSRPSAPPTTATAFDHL

[4] = non-specific cell cytotoxicity, dose response, cytotoxicity control for PAX8 inhibitor project, plate reader, dry powder samples (AID 743021); format: functional, cell-based
[5] = A2780 ovarian cancer cell cytotoxicity, dose response, cytotoxicity control, plate reader, dry powder samples (AID 743046); format: functional, cell-based
[6] = cytotoxicity in OVCAR8 ovarian cancer cells, dose response, PAX8 project, cell-based, plate reader, dry powder samples (AID 743197); format: functional; conditions: OVCAR-8
[7] = NIH:OVCAR-3 ovarian cancer cell cytotoxicity, dose response, PAX8 inhibitor project, plate reader, dry powder samples (AID 743044); format: functional, cell-based
[8] = HEK293T cytotoxicity, dose response, cytotoxicity control for miR-122 modulator project, cell-based, activator set, cherry-pick (AID 720690); format: functional;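 note: HEK293T human cells scored for general mammalian cytotoxicity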
[9] = inhibitors of SNCA 5'UTR-driven reporter translation, confirmation, H4 neuroglioma cells, luminescence (AID 1988); format: functional, cell-based
[10] = Luminescence Cell-Based Dose Response HTS to Identify Inhibitors of 5'UTR Stem-Loop Driven Prion Protein mRNA Translation in H4 Neuroglioblastoma Cells. [Related pubchem assays: 1827 (Project Summary), 1813 (Primary HTS)]; format: functional
[11] = inhibitors of firefly luciferase expression or activity, dose response, H4 neuroglioma cells, luminescence (AID 1990); format: functional, cell-based
[12] = HepG2 cell cytotoxicity, dose response, cytotoxicity control, cherry-picked samples (AID 1159577); format: functional, cell-based
[13] = P. falciparum Dd2 growth inhibitors, dose response, SYBR Green, dry powder samples (AID 1159566); format: functional, cell-based;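 note: potency for growth inhibition with lower SYBR green DNA signal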
[14] = HepG2 cell cytotoxicity, dose response, cytotoxicity control, plate reader, dry powder samples (AID 1159569); format: functional, cell-based;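 note: inhibitor potency with signal falling toward the positive control level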
[15] = P. falciparum Dd2 growth inhibitors, dose response, SYBR Green, cherry-picked samples (AID 1159567); format: functional, cell-based
[16] = P. falciparum ATP4 D1247Y mutant growth inhibitors, dose response, NITD609-resistant line, SYBR Green, dry powder (AID 1159571); format: functional, cell-based;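 note: parasites synchronized at ring stage by sorbitol before testing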
[17] = P. falciparum 3D7-ScDHODH growth inhibitors, dose response, SYBR Green, dry powder samples (AID 1159570); format: functional, cell-based;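 note: parasite growth measured after 72 hours of compound exposure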
[18] = HIV Env cell-cell fusion inhibitors, dose response, HIV entry, plate reader, dry powder (AID 687023); format: functional, cell-based
[19] = inhibitors of HIV Env-driven cell fusion, dose response, cherry-pick (AID 652057); format: functional, cell-based
[20] = ZM109 Env clade C HIV-1 fusion inhibitors, dose response, HeLa effector, CEM target cells, luciferase, cherry-pick (AID 652058); format: functional, cell-based
[21] = PAX2 cell-based inhibition, dose response, selectivity assay for PAX8 inhibitor project, plate reader, dry powder samples (AID 743048); format: functional;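 note: HEK293 cells carrying a WT1 promoter luciferase reporter driven by expressed Pax2; potency is for inhibition of Pax2 driven reporter signal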
[22] = PAX5 activity inhibitors, dose response, selectivity assay for PAX8 inhibitor project, cell-based, plate reader, dry powder samples (AID 743047); format: functional;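 note: HEK293 cells carrying a Pax5 driven CD19 promoter luciferase reporter; potency of inhibitors that lower reporter luminescence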
[23] = cytotoxicity in COV434 cells, dose response, cytotoxicity control for PAX8 inhibitor project, cell-based, plate reader, dry powder, SA7 (AID 743145); format: functional
Cytochrome P450 2C9 = Cytochrome P450 2C9 (Homo sapiens, UniProt P11712)
Sequence of Cytochrome P450 2C9 (P11712 whole entry): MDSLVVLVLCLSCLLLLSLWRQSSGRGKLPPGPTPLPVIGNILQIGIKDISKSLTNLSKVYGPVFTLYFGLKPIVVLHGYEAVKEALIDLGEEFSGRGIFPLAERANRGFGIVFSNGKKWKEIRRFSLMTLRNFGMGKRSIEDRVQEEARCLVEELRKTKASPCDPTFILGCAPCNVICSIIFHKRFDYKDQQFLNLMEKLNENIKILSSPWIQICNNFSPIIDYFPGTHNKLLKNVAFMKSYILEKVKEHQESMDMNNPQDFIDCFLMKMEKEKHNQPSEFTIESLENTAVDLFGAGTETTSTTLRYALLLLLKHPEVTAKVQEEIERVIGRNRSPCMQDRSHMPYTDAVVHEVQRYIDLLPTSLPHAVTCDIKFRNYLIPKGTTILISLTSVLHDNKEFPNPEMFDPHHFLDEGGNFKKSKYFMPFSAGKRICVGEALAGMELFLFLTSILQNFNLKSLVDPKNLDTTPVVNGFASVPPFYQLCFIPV

[24] = molecular target: 1-phosphatidylinositol 4,5-bisphosphate phosphodiesterase beta-3 (Homo sapiens, UniProt Q01970); assay: Fluorescence-based biochemical high throughput dose response assay to identify inhibitors of phospholipase C isozymes (PLC-B3).
Sequence of 1-phosphatidylinositol 4,5-bisphosphate phosphodiesterase beta-3 (Q01970 whole entry): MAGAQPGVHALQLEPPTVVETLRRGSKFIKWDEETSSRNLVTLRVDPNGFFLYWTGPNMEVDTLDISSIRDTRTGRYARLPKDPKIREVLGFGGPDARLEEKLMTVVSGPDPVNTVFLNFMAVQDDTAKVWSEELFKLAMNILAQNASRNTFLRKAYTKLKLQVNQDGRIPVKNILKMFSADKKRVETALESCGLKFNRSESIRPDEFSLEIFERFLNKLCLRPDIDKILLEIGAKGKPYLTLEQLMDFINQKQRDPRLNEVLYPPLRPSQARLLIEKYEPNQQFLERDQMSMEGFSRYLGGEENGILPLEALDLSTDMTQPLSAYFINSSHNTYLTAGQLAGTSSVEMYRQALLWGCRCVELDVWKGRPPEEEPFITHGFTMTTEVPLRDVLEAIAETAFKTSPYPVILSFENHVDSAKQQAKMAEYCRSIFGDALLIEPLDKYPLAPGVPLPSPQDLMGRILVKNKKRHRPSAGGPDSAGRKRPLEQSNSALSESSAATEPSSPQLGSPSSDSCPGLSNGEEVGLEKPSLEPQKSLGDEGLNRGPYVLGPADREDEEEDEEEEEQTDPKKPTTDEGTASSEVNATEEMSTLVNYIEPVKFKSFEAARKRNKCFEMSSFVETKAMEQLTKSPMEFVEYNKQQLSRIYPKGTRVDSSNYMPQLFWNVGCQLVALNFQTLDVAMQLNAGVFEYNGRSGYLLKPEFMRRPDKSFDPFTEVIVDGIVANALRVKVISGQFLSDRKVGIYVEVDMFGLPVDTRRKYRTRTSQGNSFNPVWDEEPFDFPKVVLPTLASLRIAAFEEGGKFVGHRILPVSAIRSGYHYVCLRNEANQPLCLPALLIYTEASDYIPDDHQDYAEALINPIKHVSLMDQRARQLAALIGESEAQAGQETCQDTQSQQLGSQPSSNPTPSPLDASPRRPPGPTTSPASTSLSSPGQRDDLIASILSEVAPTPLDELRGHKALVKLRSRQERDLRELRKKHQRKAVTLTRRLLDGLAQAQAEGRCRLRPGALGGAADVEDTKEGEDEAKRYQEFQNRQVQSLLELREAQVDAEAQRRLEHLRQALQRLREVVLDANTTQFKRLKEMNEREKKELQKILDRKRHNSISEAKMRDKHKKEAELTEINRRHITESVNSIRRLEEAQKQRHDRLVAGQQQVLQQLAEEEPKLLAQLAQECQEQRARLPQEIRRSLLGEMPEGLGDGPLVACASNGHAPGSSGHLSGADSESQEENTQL

[25] = molecular target: 1-phosphatidylinositol 4,5-bisphosphate phosphodiesterase gamma-1 (Homo sapiens, UniProt P19174); assay: Counterscreen for inhibitors of phospholipase C isozymes (PLC-B3): Fluorescence-based biochemical high throughput dose response assay to identify inhibitors of phospholipase C isozymes (PLC-gamma1).
Sequence of 1-phosphatidylinositol 4,5-bisphosphate phosphodiesterase gamma-1 (P19174 whole entry): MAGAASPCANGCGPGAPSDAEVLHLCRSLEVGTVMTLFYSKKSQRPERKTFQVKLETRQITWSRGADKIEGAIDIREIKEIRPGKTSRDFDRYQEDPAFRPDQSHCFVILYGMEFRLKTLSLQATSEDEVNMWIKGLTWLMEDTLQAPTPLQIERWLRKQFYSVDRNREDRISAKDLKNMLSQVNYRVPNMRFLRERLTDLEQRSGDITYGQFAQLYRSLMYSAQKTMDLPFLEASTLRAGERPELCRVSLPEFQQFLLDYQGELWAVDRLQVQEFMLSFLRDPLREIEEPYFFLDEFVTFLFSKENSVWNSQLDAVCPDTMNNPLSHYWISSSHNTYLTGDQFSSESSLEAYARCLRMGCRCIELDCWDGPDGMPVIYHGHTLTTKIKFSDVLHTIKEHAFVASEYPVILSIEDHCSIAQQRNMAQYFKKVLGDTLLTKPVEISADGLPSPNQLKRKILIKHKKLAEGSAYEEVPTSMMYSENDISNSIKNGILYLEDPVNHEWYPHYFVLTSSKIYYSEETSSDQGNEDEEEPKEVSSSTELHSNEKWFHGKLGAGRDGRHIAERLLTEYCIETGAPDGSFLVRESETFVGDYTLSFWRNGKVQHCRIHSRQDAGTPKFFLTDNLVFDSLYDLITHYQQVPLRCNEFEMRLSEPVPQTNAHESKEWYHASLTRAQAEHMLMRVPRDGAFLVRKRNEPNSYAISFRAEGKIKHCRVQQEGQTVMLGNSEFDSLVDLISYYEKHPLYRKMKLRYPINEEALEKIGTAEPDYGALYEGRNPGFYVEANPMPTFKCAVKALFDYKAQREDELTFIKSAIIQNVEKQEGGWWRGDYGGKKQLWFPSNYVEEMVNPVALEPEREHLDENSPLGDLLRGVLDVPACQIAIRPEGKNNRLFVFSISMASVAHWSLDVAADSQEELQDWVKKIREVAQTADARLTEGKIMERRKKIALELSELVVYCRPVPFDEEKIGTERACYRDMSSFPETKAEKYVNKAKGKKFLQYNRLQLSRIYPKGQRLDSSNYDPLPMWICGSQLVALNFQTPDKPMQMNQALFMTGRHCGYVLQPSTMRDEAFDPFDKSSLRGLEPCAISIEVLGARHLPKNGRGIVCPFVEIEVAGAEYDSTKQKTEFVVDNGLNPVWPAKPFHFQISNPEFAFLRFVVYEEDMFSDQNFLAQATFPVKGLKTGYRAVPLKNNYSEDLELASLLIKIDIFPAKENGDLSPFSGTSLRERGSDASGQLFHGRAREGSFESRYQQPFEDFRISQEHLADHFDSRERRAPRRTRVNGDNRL

Cytochrome P450 2D6 = Cytochrome P450 2D6 (Homo sapiens, UniProt P10635);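 note: CYP2D6 member of a cytochrome P450 panel assay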
Sequence of Cytochrome P450 2D6 (P10635 whole entry): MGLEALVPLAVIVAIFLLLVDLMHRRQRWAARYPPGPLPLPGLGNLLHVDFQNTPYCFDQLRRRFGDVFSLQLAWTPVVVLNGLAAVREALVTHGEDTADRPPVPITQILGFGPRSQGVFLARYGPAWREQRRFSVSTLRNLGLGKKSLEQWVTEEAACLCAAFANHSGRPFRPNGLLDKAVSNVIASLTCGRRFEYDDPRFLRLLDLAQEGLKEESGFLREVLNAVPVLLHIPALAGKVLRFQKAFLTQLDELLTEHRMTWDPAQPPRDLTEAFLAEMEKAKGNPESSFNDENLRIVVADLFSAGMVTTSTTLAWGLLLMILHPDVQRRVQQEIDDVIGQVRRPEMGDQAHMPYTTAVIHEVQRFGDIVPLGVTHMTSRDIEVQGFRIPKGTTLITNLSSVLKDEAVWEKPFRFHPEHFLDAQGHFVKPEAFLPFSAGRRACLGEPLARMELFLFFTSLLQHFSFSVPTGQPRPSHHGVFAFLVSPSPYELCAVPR

Cytochrome P450 2C19 = Cytochrome P450 2C19 (Homo sapiens, UniProt P33261); assay: Cytochrome panel assay with activity outcomes. Panel member name: p450-cyp2c19 Compounds with AC50 equal or less than 10 uM are considered active; format: functional; conditions: read-out: AC50
Sequence of Cytochrome P450 2C19 (P33261 whole entry): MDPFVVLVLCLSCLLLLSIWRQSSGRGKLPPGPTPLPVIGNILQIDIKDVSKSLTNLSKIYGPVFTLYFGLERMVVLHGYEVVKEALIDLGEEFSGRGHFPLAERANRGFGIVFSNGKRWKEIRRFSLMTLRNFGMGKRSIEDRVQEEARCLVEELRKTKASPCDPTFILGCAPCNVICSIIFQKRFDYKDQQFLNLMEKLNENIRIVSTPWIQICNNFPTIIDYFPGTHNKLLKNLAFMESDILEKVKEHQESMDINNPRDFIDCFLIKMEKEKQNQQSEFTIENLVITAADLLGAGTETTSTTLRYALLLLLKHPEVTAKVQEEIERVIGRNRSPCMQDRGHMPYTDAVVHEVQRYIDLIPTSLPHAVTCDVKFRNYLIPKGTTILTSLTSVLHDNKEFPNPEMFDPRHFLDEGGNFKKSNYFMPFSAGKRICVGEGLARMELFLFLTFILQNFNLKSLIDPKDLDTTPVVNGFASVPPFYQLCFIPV

[26] = HepG2 cell cytotoxicity, dose response, cytotoxicity control, plate reader, cherry-pick, antagonist series (AID 743416); format: functional, cell-based
[27] = MC4R antagonists, dose response, counter-screen for LGR2 antagonist project, cell-based, plate reader, cherry pick (AID 743444); format: functional;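 note: transfected HEK 293 cells stimulated with alpha-MSH peptide; potency of inhibitors of the alpha-MSH evoked signal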
[28] = HEK293 cell cytotoxicity, dose response, cytotoxicity control, plate reader, cherry-picked samples (AID 743446); format: functional, cell-based
[29] = cytotoxicity in HEK-293T cells, dose response, cytotoxicity control for TCR NF-kB inhibitor project, luminescence, T-cell screen hits (AID 489026); format: functional, cell-based;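 note: cells exposed to compound about 14 hours before the viability readout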
[30] = A549 cell cytotoxicity, dose response, cytotoxicity control, plate reader, cherry-pick, antagonist series (AID 743412); format: functional, cell-based
[31] = LGR2 antagonists, dose response, cell-based, HEK293, CRE-luciferase reporter, cherry pick, set 2 (AID 743343); format: functional;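 note: transfected cells were stimulated with diluted bursicon conditioned medium after compound addition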
[32] = miR-122 activators in hepatoma reporter cells, dose response, cell-based, Huh7 psiCHECK-miR122, Renilla luciferase, cherry-picked (AID 651956); format: functional;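 note: huh7 hepatoma cells stably carrying a psiCHECK-2 miR-122 sensor plasmid; renilla luciferase signal reporting endogenous miR-122 activity after 48 h compound exposure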
[33] = Vero E6 cell cytotoxicity, dose response, cytotoxicity control for non-replicating M. tuberculosis project, secondary assay (AID 492998); format: functional, VeroE6; conditions: Vero C1008
[34] = Artemis endonuclease inhibitor potency, dose response, biochemical, fluorescence intensity (AID 720701); format: functional;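 note: Artemis endonuclease enzyme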
Streptokinase A = molecular target: T2, Streptokinase A (Streptococcus pyogenes serotype M1, UniProt P10520); assay: S. pyogenes streptokinase expression inhibitors, potency, dose response, plasminogen activation absorbance, OD405 (AID 1914); format: functional, Streptococcus pyogenes M1 GAS;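 note: secreted streptokinase activity via plasminogen activation per viability signal from cell pellet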
T2 sequence (P10520 whole entry): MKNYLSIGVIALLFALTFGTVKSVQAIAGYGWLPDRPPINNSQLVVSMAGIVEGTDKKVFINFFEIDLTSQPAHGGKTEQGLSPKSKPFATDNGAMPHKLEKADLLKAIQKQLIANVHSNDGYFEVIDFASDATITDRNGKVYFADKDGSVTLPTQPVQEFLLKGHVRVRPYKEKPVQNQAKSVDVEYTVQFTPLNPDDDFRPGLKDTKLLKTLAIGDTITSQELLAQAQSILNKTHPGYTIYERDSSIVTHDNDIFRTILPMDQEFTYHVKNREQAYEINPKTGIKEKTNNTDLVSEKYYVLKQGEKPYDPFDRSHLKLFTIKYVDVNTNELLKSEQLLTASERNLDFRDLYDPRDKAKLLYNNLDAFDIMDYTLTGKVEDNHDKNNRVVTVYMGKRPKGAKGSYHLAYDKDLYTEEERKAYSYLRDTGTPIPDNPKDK

cells [35] = format: functional
[36] = THP-1 cell cytotoxicity, dose response, cytotoxicity control for non-replicating M. tuberculosis project (AID 489025); format: functional
[37] = test system: Streptococcus sp. 'group A'; assay: growth inhibition of control SK(-) GAS strain, dose response, counter-screen for streptokinase expression inhibitor project, luminescence, kanamycin, BacTiterGlo, confirmation (AID 1900); format: functional, organism-based
Streptococcus = assay: Group A Streptococcus viability loss, dose response, counter-screen for streptokinase expression inhibitor project, luminescence, BacTiterGlo (AID 1915); format: functional, organism-based;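 note: potency for reduction of bacterial viability or growth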
INS1 = assay: beta cell apoptosis inhibitors, cytokine rescue, dose response, luminescence, retest (AID 449756); format: functional, cell-based; conditions: Rattus norvegicus;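 note: cell death triggered by IL-1 beta plus TNF-alpha plus IFN-gamma mixture; protective hits raise ATP signal compared with cytokine alone wells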

Sequence of RNA-editing ligase 1, mitochondrial (P86926 whole entry, the tested form may be a part): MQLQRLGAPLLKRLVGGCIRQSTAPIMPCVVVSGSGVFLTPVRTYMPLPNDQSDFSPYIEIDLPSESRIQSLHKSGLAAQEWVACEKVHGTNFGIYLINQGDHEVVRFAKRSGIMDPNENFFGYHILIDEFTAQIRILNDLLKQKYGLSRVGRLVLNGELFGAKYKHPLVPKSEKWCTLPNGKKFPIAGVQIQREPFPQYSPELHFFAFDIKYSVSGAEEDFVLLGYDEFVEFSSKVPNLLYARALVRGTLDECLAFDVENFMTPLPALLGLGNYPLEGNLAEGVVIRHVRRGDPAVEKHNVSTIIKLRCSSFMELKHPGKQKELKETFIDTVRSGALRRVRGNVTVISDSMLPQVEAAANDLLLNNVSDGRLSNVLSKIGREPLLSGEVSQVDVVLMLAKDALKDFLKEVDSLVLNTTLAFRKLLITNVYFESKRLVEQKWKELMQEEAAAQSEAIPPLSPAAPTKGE

COC(=O)C1=C(C)N(Cc2ccccc2C(F)(F)F)C(NCc2ccc(C(F)(F)F)cc2)=NC1c1ccc(C(F)(F)F)cc1 (configuration not stated)
IC50 [1]: > 96.6 µM (inactive)

Cc1ccnc(NC(=O)Nc2cccc(F)c2)c1
EC50 [2]: > 67.5 µM (inactive) | EC50 (cells [3]): > 67.5 µM (inactive)

Nc1nc(N)c2c(ccc3c2ccn3Cc2cccc([N+](=O)[O-])c2)n1
AC50 (Paired box protein Pax-8): 1.5 µM (active) | AC50 [4]: 20.3 µM (active)

Cc1noc(C)c1S(=O)(=O)N(C)C[C@H]1OCCCC[C@@H](C)Oc2ccc(NS(=O)(=O)c3ccc(Cl)cc3)cc2C(=O)N([C@@H](C)CO)C[C@@H]1C
AC50 [5]: 12.1 µM (active) | AC50 (Paired box protein Pax-8): 10.5 µM (active) | AC50 [6]: > 70 µM (inactive) | AC50 [7]: 46.2 µM (active)

CCOc1ccc(-c2nnc(SCC(=O)Nc3ccc4c(c3)c3ccccc3n4CC)n2N)cc1
AC50 [8]: 10.3 µM (active) | EC50 [9]: 11.6 µM (active) | EC50 [10]: > 120 µM (not active) | EC50 [11]: 42.3 µM (active)

C[C@@H]1CN([C@@H](C)CO)C(=O)c2c(c3ccccc3n2C)-c2ccccc2CO[C@H]1CN(C)C(=O)Nc1cccc(Cl)c1Cl
AC50 [12]: > 39 µM (inactive) | AC50 [13]: 1.49 µM (active) | AC50 [14]: 27.4 µM (active) | AC50 [15]: 1.86 µM (active) | AC50 [16]: 2.21 µM (active) | AC50 [17]: 2.3 µM (active)

Cc1ccc(S(=O)(=O)N(C)C[C@@H]2Oc3ccc(NS(=O)(=O)c4c(C)noc4C)cc3CC(=O)N([C@H](C)CO)C[C@@H]2C)cc1
AC50 [18]: 11.4 µM (active) | AC50 [19]: 23.2 µM (active) | AC50 [20]: 5.38 µM (active)

CC(C)c1ccc(C=NNc2ccc([N+](=O)[O-])cn2)cc1
EC50 [2]: > 67.6 µM (inactive) | EC50 (cells [3]): > 67.6 µM (inactive)

COc1ccccc1C#Cc1ccc([C@@H]2[C@@H](C#N)N(C(=O)C3CCCCC3)[C@H]2CO)cc1
AC50 [12]: > 39 µM (inactive) | AC50 [21]: 31.9 µM (active) | AC50 (Paired box protein Pax-8): 6.05 µM (active) | AC50 [13]: 0.562 µM (active) | AC50 [14]: 21.8 µM (active) | AC50 [15]: 1.37 µM (active) | AC50 [16]: 1.14 µM (active) | AC50 [22]: 24.2 µM (active) | AC50 [23]: > 70 µM (inactive) | AC50 [17]: 0.689 µM (active)

O=C(Nc1cccc2ccccc12)c1ccccc1
AC50 (Cytochrome P450 2C9): inconclusive | IC50 [24]: > 123 µM (inactive) | IC50 [25]: > 123 µM (inactive) | AC50 (Cytochrome P450 2D6): 0.00251 µM (inconclusive) | AC50 (Cytochrome P450 2C19): 2.51 µM (inconclusive)

c1cc2c(cc1C1=NN=C(NC3CC3)SC1)OCCO2
AC50 [26]: 6.46 µM (active) | AC50 [27]: 0.251 µM (active) | AC50 [28]: 4.07 µM (active) | AC50 (Paired box protein Pax-8): 2.14 µM (active) | AC50 [4]: 7.92 µM (active) | IC50 [29]: > 80 µM (inactive) | AC50 [30]: 5.39 µM (active) | AC50 [31]: 0.276 µM (active)

C[C@@H]1CN([C@@H](C)CO)C(=O)Cc2cc(NC(=O)C3CCCCC3)ccc2O[C@H]1CN(C)Cc1ccc(-c2ccccc2)cc1
AC50 [8]: 16.8 µM (active) | AC50 [32]: 14.3 µM (active)

Cc1cc(C)n(-c2nc(NCCCO)c3c4c(sc3n2)CCCC4)n1
CC50 [33]: > 20 µM (active) | IC50 [34]: 17.9 µM (active) | EC50 (Streptokinase A): > 150 µM (not active) | IC50 (cells [35]): 5.54 µM (active) | CC50 [36]: 38.6 µM (active) | EC50 [37]: 25.9 µM (active) | EC50 (Streptococcus): > 150 µM (not active) | AC50 (INS1): 5.71 µM (active)
